29 compounds from patent publication US6756382B2, “Amide substituted imidazoquinolines” (3M Innovative Properties Company, priority 1999, dated 2004) can be followed below.

In general, melting point refers to the temperature of the solid-liquid transition.

Series [1] concerns interferon (α). Description: Cytokine induction in human cells: interferon secreted by PBMCs, ELISA. The class given is cell-based. To be noted: PBMC, incubated 18 to 24 hours, interferon determined by ELISA, read-out: Lowest Effective Concentration (μM) Interferon. In a few lines:
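Human donor PBMCs at 1.5-2×10^6 cells/mL final in RPMI with 10% FBS, exposed to serially diluted compound (≤1% DMSO) for 18–24 h at 37 °C, 5% CO2. Supernatant interferon (α) measured by ELISA; value is lowest concentration inducing interferon.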
(ELISA stands for enzyme-linked immunosorbent assay.)

The subject of series [2] is tumor necrosis factor (α). Description: Cytokine induction in human cells: tumor necrosis factor (α) secreted by PBMCs, ELISA. The settings on record: PBMC, incubated 18 to 24 hours, TNF determined by ELISA, read-out: Lowest Effective Concentration (μM) Tumor Necrosis Factor. The class given is cell-based. In short, it runs like this:
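Human donor PBMCs at final 1.5-2×10^6 cells/mL in RPMI with 10% FBS incubated 18 to 24 h at 37° C. with serially diluted compound, DMSO at most 1% final. Supernatant TNF-α measured by ELISA; value is the lowest concentration inducing TNF.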

`Nc1nc2ccccc2c2c1ncn2CCCCNC(=O)[C@H]1C[C@@H]1c1ccccc1` (relative stereo) [Example 37, N^1-[4-(4-Amino-1H-imidazo[4,5-c]quinolin-1-yl)butyl]-(trans)-2-phenylcyclopropane-1-carboxamide] yielded a melting point of 77 °C. Moreover, in series [1], the minimal effective concentration was found to be 0.37 µM. Besides, the minimal effective concentration in series [2] is greater than 30 µM.
Taken in the same sequence, the figures for `Nc1nc2ccccc2c2c1ncn2CCCCNC(=O)c1ccccc1` [Example 1, N^1-[4-(4-Amino-1H-imidazo[4,5-c]quinolin-1-yl)butyl]benzamide] were 210 to 212 °C, 0.37 µM and 10 µM.
On the same counts, the results for `CCCc1nc2c(N)nc3ccccc3c2n1CCCCNC(=O)c1ccccc1` [Example 3, N^1-[4-(4-Amino-2-propyl-1H-imidazo[4,5-c]quinolin-1-yl)butyl]benzamide] are 173 to 174 °C, 0.37 µM and 1.11 µM.
On the same counts, the results for `Nc1nc2ccccc2c2c1ncn2CCCCNC(=O)c1ccc(CCl)cc1` [Example 7, N^1-[4-(4-Amino-1H-imidazo[4,5-c]quinolin-1-yl)butyl]-4-(chloromethyl)benzamide] are 240 to 300 °C (dec.), 1.11 µM and greater than 30 µM.
`Nc1nc2ccccc2c2c1ncn2CCCCNC(=O)c1ccc(Cn2c(N3CCCC3)nc3ccccc32)cc1` [Example 8, N^1-[4-(4-Amino-1H-imidazo[4,5-c]quinolin-1-yl)butyl]-4-[(2-tetrahydro-1H -1-pyrrolyl-1H-benzo[d]imidazol-1-yl)methyl]benzamide] yielded a melting point of 150 to 153 °C. Moreover, the minimal effective concentration in series [1] turned out to be 0.04 µM. Also, the minimal effective concentration in series [2] is greater than 30 µM.
Taken in the same sequence, the figures for `Cc1nc2c(N)nc3ccccc3c2n1CCCCCNC(=O)c1ccccc1` [Example 9, N^1-[5-(4-Amino-2-methyl-1H-imidazo[4,5-c]quinolin-1-yl)pentyl]benzamide] were 110 to 120 °C, 0.37 µM and 3.33 µM.
On the same counts, the results for `Nc1nc2ccccc2c2c1ncn2CCCCNC(=O)c1ccc(N2CCOCC2)nc1` [Example 12, N^3-[4-(4-Amino-1H-imidazo[4,5-c]quinolin-1-yl)butyl]-6-morpholinonicotinamide] are 160 to 170 °C (dec.), 3.33 µM and greater than 30 µM.
On the same counts, the results for `Nc1nc2ccccc2c2c1ncn2CCNC(=O)c1ccccc1` [Example 13, N^1-[2-(4-Amino-1H-imidazo[4,5-c]quinolin-1-yl)ethyl]benzamide] are 295 °C, 1.11 µM and 3.33 µM.
Turning to `Nc1nc2ccccc2c2c1ncn2CCCCNC(=O)c1ccccc1Oc1ccccc1` [Example 14, N^1-[4-(4-Amino-1H-imidazo[4,5-c]quinolin-1-yl)butyl]-2-phenoxybenzamide], the melting point was in the range of 93 to 94 °C. Besides, the minimal effective concentration in series [1] is 3.33 µM. In series [2], the minimal effective concentration was greater than 30 µM.
On the same counts, the results for `Nc1nc2ccccc2c2c1ncn2CCCCNC(=O)c1cccc(C(=O)c2ccccc2)c1` [Example 15, N^1-[4-(4-Amino-1H-imidazo[4,5-c]quinolin-1-yl)butyl]-3-benzoylbenzamide] are 103 to 105 °C, 3.33 µM and greater than 30 µM.
On the same counts, the results for `Nc1nc2ccccc2c2c1ncn2CCCCNC(=O)CCc1ccccc1` [Example 16, N^1-[4-(4-Amino-1H-imidazo[4,5-c]quinolin-1-yl)butyl]-3-phenylpropanamide] are 148 to 150 °C, 1.11 µM and 30 µM.
For `Nc1nc2ccccc2c2c1ncn2CCNC(=O)CCc1ccccc1` [Example 17, N^1-[2-(4-Amino-1H-imidazo[4,5-c]quinolin-1-yl)ethyl]-3-phenylpropanamide], the melting point was 254 to 256 °C. Besides, the minimal effective concentration in series [1] worked out at 3.33 µM. In series [2], the minimal effective concentration amounted to 10 µM.
For `Nc1nc2ccccc2c2c1ncn2CCCCNC(=O)COc1ccc(C(=O)c2ccccc2)cc1` [Example 18, N^1-[4-(4-Amino-1H-imidazo[4,5-c]quinolin-1-yl)butyl]-2-(4-benzoylphenoxy)acetamide], the melting point fell in the range of 73 to 98 °C. For the same compound, the minimal effective concentration in series [1] was determined as 3.33 µM. In series [2], the minimal effective concentration was greater than 30 µM.
Compound `Nc1nc2ccccc2c2c1ncn2CCCCNC(=O)CCCCOc1ccc2[nH]c(=O)[nH]c2c1` [Example 19, N-[4-Amino-1H-imidazo[4,5-c]quinolin-1-yl]butyl-5-[(2-oxo-2,3-dihydro-1H-benzo[d]imidazol-5-yl)oxy]pentamide] came in with a melting point of 150 to 157 °C. The minimal effective concentration in series [1] was found to be 10 µM. In addition, in series [2], the minimal effective concentration was greater than 30 µM.
On the same counts, the results for `Nc1nc2ccccc2c2c1ncn2CCCCNC(=O)c1ccc(C(=O)c2ccccc2)cc1` [Example 20, N^1-[4-(4-Amino-1H-imidazo[4,5-c]quinolin-1-yl)butyl]-4-benzoylbenzamide] are 159 to 161 °C, 3.33 µM and greater than 30 µM.
As to `Nc1nc2ccccc2c2c1ncn2CCCCNC(=O)c1ccc2ncccc2c1` [Example 21, N^6-[4-(4-Amino-1H-imidazo[4,5-c]quinolin-1-yl)butyl]-6-quinolinecarboxamide], the melting point lay in the range of 122 to 127 °C. For the same compound, in series [1], the minimal effective concentration turned out to be 0.12 µM. For the same compound, the minimal effective concentration in series [2] amounted to 1.11 µM.
On the same counts, the results for `Cc1nc2c(N)nc3ccccc3c2n1CCCNC(=O)c1ccccc1` [Example 22, N^1-[3-(4-Amino-2-methyl-1H-imidazo[4,5-c]quinolin-1-yl)propyl]benzamide] are 230 to 231.4 °C, 0.37 µM and 10 µM.
On the same counts, the results for `Nc1nc2ccccc2c2c1ncn2CCCCCCNC(=O)c1ccccc1` [Example 23, N^1-[6-(4-Amino-1H-imidazo[4,5-c]quinolin-1-yl)hexyl]benzamide] are 146 to 155 °C, 1.11 µM and greater than 30 µM.
`COCCc1nc2c(N)nc3c(c2n1CCCNC(=O)c1ccccc1)CCCC3` [Example 195, N-{3-[4-amino-2-(2-methoxyethyl)-6,7,8,9-tetrahydro-1H-imidazo[4,5-c]quinolin-1-yl]propyl}benzamide] showed a melting point of 167.8 to 169.6 °C.
Same read-out and setting: in the case of `CCc1nc2c(N)nc3ccccc3c2n1CCCCNC(=O)C1CCCC1` [Example 197, N-[4-(4-amino-2-ethyl-1H-imidazo[4,5-c]quinolin-1-yl)butyl]cyclopentanecarboxamide] it was 178.6 to 179.5 °C; in that of `Cc1nc2c(N)nc3ccccc3c2n1CCCCNC(=O)C1CCCCC1` [Example 198, N-[4-(4-amino-2-methyl-1H-imidazo[4,5-c]quinolin-1-yl)butyl]cyclohexanecarboxamide], 191.6 to 192.6 °C; in that of `CCc1nc2c(N)nc3ccccc3c2n1CCCCNC(=O)C(C)C` [Example 199, N-[4-(4-amino-2-ethyl-1H-imidazo[4,5-c]quinolin-1-yl)butyl]-2-methylpropanamide], 155.4 to 156.3 °C.
Same read-out and setting: in the case of `CCCC(=O)NCCCCn1c(CC)nc2c(N)nc3ccccc3c21` [Example 200, N-[4-(4-amino-2-ethyl-1H-imidazo[4,5-c]quinolin-1-yl)butyl]butanamide] it was 147.7 to 148.8 °C; in that of `Cc1nc2c(N)nc3ccccc3c2n1CCCCNC(=O)C1CCCC1` [Example 201, N-[4-(4-amino-2-methyl-1H-imidazo[4,5-c]quinolin-1-yl)butyl]cyclopentanecarboxamide], 168.6 to 169.8 °C; in that of `Cc1nc2c(N)nc3ccccc3c2n1CCCCNC(=O)C(C)C` [Example 202, N-[4-(4-amino-2-methyl-1H-imidazo[4,5-c]quinolin-1-yl)butyl]-2-methylpropanamide], 159.7 to 160.7 °C.
On the same count and under the same terms, as for `CCCC(=O)NCCCCn1c(C)nc2c(N)nc3ccccc3c21` [Example 203, N-[4-(4-amino-2-methyl-1H-imidazo[4,5-c]quinolin-1-yl)butyl]butanamide], the figure is 169.4 to 170.5 °C.
In turn, `Cc1nc2c(N)nc3ccccc3c2n1CCCNC(=O)C1CCCCC1` [Example 205, N-[3-(4-amino-2-methyl-1H-imidazo[4,5-c]quinolin-1-yl)propyl]cyclohexanecarboxamide] showed a melting point of 234.4 to 235.4 °C.
The same measure, in the same setting: as for `Cc1nc2c(N)nc3ccccc3c2n1CCCNC(=O)C(C)C` [Example 207, N-[3-(4-amino-2-methyl-1H-imidazo[4,5-c]quinolin-1-yl)propyl]-2-methylpropanamide], the figure is 239 to 240.1 °C; as for `CCCC(=O)NCCCn1c(C)nc2c(N)nc3ccccc3c21` [Example 208, N-[3-(4-amino-2-methyl-1H-imidazo[4,5-c]quinolin-1-yl)propyl]butanamide], 221.8 to 223.3 °C.
